This is an account of results in article PMC9738727, “Purification and Characterization of Novel Anti-MRSA Peptides Produced by Brevibacillus sp. SPR-20” (Molecules, 2022).

Converted amounts (≈) assume the structure as drawn. “And” between values parts separate entries of the source, which are not always exact repeats. Equal entries are not always repeated. Where two headings read alike, the source gives them in different places. Ends that are not written are not given here.

The subject of one data set is MRSA isolate 1096. Kind of data set: microbe, parasite or virus in culture. In kind it is cell-based, Staphylococcus aureus. How it is done: (§1) The MIC and MBC of the purified peptides from SPR-20 were determined by broth microdilution assay following a standard guideline. S. aureus TISTR 517 and MRSA isolate 142, 1096, and 2468 as bacterial strains were cultured in MH agar at 37 °C for 18 h. […] The cells were then diluted to 5 × 10^6 CFU/mL using cation-adjusted Mueller Hinton broth (CAMHB). The diluted cell suspension (10 μL) was transferred to each well of a 96-well plate. The purified peptide in the total volume of 100 µL was added to each well to obtain the final concentrations between 0.5 and 64 µg/mL. The standard antibiotics (vancomycin and cefoxitin) (Sigma-Aldrich Co., St. Louis, MO, USA) and antibiotic-free samples were the positive and negative controls, respectively. CAMHB without tested bacteria was used as a blank. The 96-well plates were incubated at 37 °C for 24 h, and the experiment was performed in triplicate for each strain. […] Subsequently, 100 µL of each dilution was spread on MH agar and then incubated at 37 °C for 24 h.

The subject of data set [1] is S. aureus TISTR 517. Kind of data set: microbe, parasite or virus in culture. It counts as cell-based, Staphylococcus aureus. How it is done:
as §1

The test system of another data set is MRSA isolate 142. Kind of data set: microbe, parasite or virus in culture. In kind it is cell-based, Staphylococcus aureus. How it is done:
as §1

Data set [2] has as its system MRSA isolate 2468. The data set can be described thus: microbe, parasite or virus in culture. It counts as cell-based, Staphylococcus aureus. How it is done:
as §1

The subject of data set [3] is S. aureus TISTR 517 and MRSA strains. Kind of data set: microbe, parasite or virus in culture. It counts as cell-based, Staphylococcus aureus. Particulars: Staphylococcus aureus. How it is done:
as §1

Data set [4] has as its system S. aureus TISTR 517. Kind of data set: microbe, parasite or virus in culture. Particulars: Staphylococcus aureus, TISTR517, 18 h, read-out: Corrected Zone of Inhibition. In kind it is cell-based, Staphylococcus aureus. How it is done:
(§2) The antimicrobial activity was measured by an agar well diffusion test with some modified methods. In brief, single colonies of the tested strains were suspended in 0.85% NaCl, and then the OD at 625 nm was adjusted to 0.1. The cell suspensions were spread on MH agar, and the tested samples (100 μL) were introduced into each well before incubation at 37 °C for 24 h. Each experiment was performed in three independent replicates, and the inhibition zone was measured and expressed as mean ± SD.
(§3) The agar well diffusion test was performed in triplicate for potency determination, using S. aureus TISTR 517 and MRSA isolate 2468 as the tested bacteria. […] The remaining standard and sample solutions were transferred to the other 3 wells. The plates were incubated at 37 °C for 18 h.

For data set [5], the system named is MRSA isolate 2468. Kind of data set: microbe, parasite or virus in culture. The note with it: Staphylococcus aureus, 18 h, read-out: Corrected Zone of Inhibition. It counts as cell-based, Staphylococcus aureus. How it is done:
as §2, §3

For data set [6] the following is noted: cited from earlier work. How it is done:
With the highest activity, P1 was selected for further study on its stability and mechanism of action. P1 was thermostable as it maintained nearly all activity after exposure to 100 °C or autoclave conditions. The short-chain peptide with substantial β-strand and disordered structures was an important characteristic of P1. This peptide might be refolded to active conformation after heat treatment that conferred good thermal stability. Similarly, acidocin LCHV (11 residues) produced by Lactobacillus acidophilus n.v. Er 317/402 Narine was stable at 130 °C for 90 min [27]. […] The enzymatic stability of P1 was caused by the absence of aromatic amino acids, which are the specific cleavage sites of proteinase K and α-chymotrypsin. The presence of one lysine at the core sequence of P1 might lessen the sensitivity of trypsin [29].

The mark [7] stands for this setting: Staphylococcus aureus, broth microdilution, CAMHB, 37 °C, 24 h, triplicate, read-out: MIC.
Setting [8] is: Staphylococcus aureus, TISTR517, 24 h.

For `CO[C@@]1(NC(=O)Cc2cccs2)C(=O)N2C(C(=O)O)=C(COC(N)=O)CS[C@@H]21` [Cefoxitin, cefoxitin, reference compound], the MIC is more than 64 µg/mL with MRSA isolate 1096 (setting [7]); 2 µg/mL (≈ 4.68 µM) in the data set with S. aureus TISTR 517 [1] (Staphylococcus aureus, TISTR517, broth microdilution, CAMHB, 37 °C, 24 h, triplicate, read-out: MIC); 2 µg/mL (≈ 4.68 µM) in the data set with S. aureus TISTR 517 [1] (broth microdilution, CAMHB, 37 °C, 24 h, triplicate); more than 64 µg/mL with MRSA isolate 142 (setting [7]); more than 64 µg/mL in the data set with MRSA isolate 2468 [2] (setting [7]); more than 64 µg/mL in data set [3] (MRSA strains only, read-out: MIC). In the data set with S. aureus TISTR 517 [1] (Staphylococcus aureus, TISTR517, dilutions spread on MH agar, 37 °C, 24 h, no colony, read-out: MBC), the MBC is 2 µg/mL (≈ 4.68 µM).

With `CN[C@H](CC(C)C)C(=O)N[C@H]1C(=O)N[C@@H](CC(N)=O)C(=O)N[C@H]2C(=O)N[C@H]3C(=O)N[C@H](C(=O)N[C@H](C(=O)O)c4cc(O)cc(O)c4-c4cc3ccc4O)[C@H](O)c3ccc(c(Cl)c3)Oc3cc2cc(c3O[C@@H]2O[C@H](CO)[C@@H](O)[C@H](O)[C@H]2O[C@H]2C[C@](C)(N)[C@H](O)[C@H](C)O2)Oc2ccc(cc2Cl)[C@H]1O` [Vancomycin, vancomycin], the MBC in the data set on MRSA isolate 1096 (Staphylococcus aureus, 24 h) came out at 2 µg/mL (≈ 1.38 µM); against S. aureus TISTR 517 [1] (setting [8]), 2 µg/mL (≈ 1.38 µM); against MRSA isolate 142 (Staphylococcus aureus, 24 h), 2 µg/mL (≈ 1.38 µM); in the data set with MRSA isolate 2468 [2] (Staphylococcus aureus, 24 h) it was 2 µg/mL (≈ 1.38 µM). Further, the MIC in the data set on MRSA isolate 1096 (Staphylococcus aureus, 24 h) was 2 µg/mL (≈ 1.38 µM); against S. aureus TISTR 517 [1] (setting [8]), 2 µg/mL (≈ 1.38 µM); against MRSA isolate 142 (Staphylococcus aureus, 24 h) it was 2 µg/mL (≈ 1.38 µM); against MRSA isolate 2468 [2] (Staphylococcus aureus, 24 h), 2 µg/mL (≈ 1.38 µM); in data set [3], 2 µg/mL and 1.38 µM. The zone of inhibition (in general, the extent of the growth-free halo in a diffusion test) at 50 µg/mL with S. aureus TISTR 517 [4] was 18.8 ± 0.61 mm; in the data set with MRSA isolate 2468 [5] it was 20.1 ± 0.29 mm. The values for the zone of inhibition at 75 µg/mL with S. aureus TISTR 517 [4] and in the data set with MRSA isolate 2468 [5] were 19.5 ± 0.52 mm and 21.2 ± 0.76 mm, respectively. Further, the zone of inhibition at 100 µg/mL with S. aureus TISTR 517 [4] was 20.3 ± 0.41 mm; with MRSA isolate 2468 [5], 22 ± 0.57 mm. Also, the figures for the zone of inhibition at 125 µg/mL with S. aureus TISTR 517 [4] and in the data set with MRSA isolate 2468 [5] were 21.1 ± 0.41 mm and 22.7 ± 0.61 mm, respectively. Moreover, the results for the zone of inhibition at 150 µg/mL in the data set on S. aureus TISTR 517 [4] and with MRSA isolate 2468 [5] were 21.3 ± 0.36 mm and 23.36 ± 0.21 mm, respectively.

For “NVGVLNPPPLV [Acidocin LCHV, antimicrobial peptide produced by Lactobacillus acidophilus n.v; Er 317/402 Narine]”, the thermal stability result in data set [6] (130 °C for 90 min) is reported as “stable”. For the same compound, the “effect of trypsin, pepsin, and proteinase K on activity” value in data set [6] (according to a previous study) is “decreased the activity”.

As to VVLNLLVKVLKYGK [Peptide P3], the MBC is given as 8 µg/mL against MRSA isolate 1096 (isolate 1096, 24 h); 4 µg/mL with S. aureus TISTR 517 [1] (TISTR 517, 24 h); 8 µg/mL in the data set with MRSA isolate 142 (isolate 142, 24 h); 8 µg/mL with MRSA isolate 2468 [2] (isolate 2468, 24 h). For the same compound, the MIC against MRSA isolate 1096 (isolate 1096, 24 h) is 4 µg/mL; against S. aureus TISTR 517 [1] (TISTR 517, 24 h), 4 µg/mL; in the data set on MRSA isolate 142 (isolate 142, 24 h) it was 4 µg/mL; in the data set with MRSA isolate 2468 [2] (isolate 2468, 24 h) it was 4 µg/mL.

In the case of VVLNLVVKLLKYAK [Peptide P5], the MBC in the data set with MRSA isolate 1096 (isolate 1096, 24 h) is reported as 32 µg/mL; in the data set on S. aureus TISTR 517 [1] (TISTR 517, 24 h) it was 32 µg/mL; against MRSA isolate 142 (isolate 142, 24 h), 32 µg/mL; with MRSA isolate 2468 [2] (isolate 2468, 24 h) it was 32 µg/mL. Further, the MIC amounted to 32 µg/mL in the data set with MRSA isolate 1096 (isolate 1096, 24 h); 32 µg/mL against S. aureus TISTR 517 [1] (TISTR 517, 24 h); 32 µg/mL in the data set with MRSA isolate 142 (isolate 142, 24 h); 32 µg/mL against MRSA isolate 2468 [2] (isolate 2468, 24 h).

For the compound VVMNLLVKVLKYVV [Peptide P2], the MBC is 64 µg/mL with MRSA isolate 1096 (isolate 1096, 24 h); 16 µg/mL in the data set with S. aureus TISTR 517 [1] (TISTR 517, 24 h); 64 µg/mL with MRSA isolate 142 (isolate 142, 24 h); 64 µg/mL against MRSA isolate 2468 [2] (isolate 2468, 24 h). Moreover, the MIC was found to be 8 µg/mL against MRSA isolate 1096 (isolate 1096, 24 h); 8 µg/mL in the data set with S. aureus TISTR 517 [1] (TISTR 517, 24 h); 8 µg/mL against MRSA isolate 142 (isolate 142, 24 h); 8 µg/mL in the data set with MRSA isolate 2468 [2] (isolate 2468, 24 h).

For VVVNLLVKVLKYAK [Peptide P4], the MBC amounted to 16 µg/mL in the data set on MRSA isolate 1096 (isolate 1096, 24 h); 8 µg/mL against S. aureus TISTR 517 [1] (TISTR 517, 24 h); 16 µg/mL against MRSA isolate 142 (isolate 142, 24 h); 16 µg/mL against MRSA isolate 2468 [2] (isolate 2468, 24 h). Further, the MIC against MRSA isolate 1096 (isolate 1096, 24 h) turned out to be 8 µg/mL; against S. aureus TISTR 517 [1] (TISTR 517, 24 h), 8 µg/mL; in the data set with MRSA isolate 142 (isolate 142, 24 h), 8 µg/mL; in the data set on MRSA isolate 2468 [2] (isolate 2468, 24 h), 8 µg/mL.

On to “XVXVVVKVLKYLX [Brevilaterin V, antimicrobial peptide from Brevibacillus laterosporus S62-9]”, for which the “initial activity retained after heating” value in data set [6] (100 °C for 2 h) was 99%. The “remaining activity with pepsin, trypsin, and proteinase K” value in data set [6] was “more than 97%”.
